Assay results from patent EP3057951B1, “METHYLENE LINKED QUINOLINYL MODULATORS OF ROR-GAMMA-T” (Janssen Pharmaceutica NV, priority 2013, dated 2015).
pIC50, pKd: −log10 of the molar value. Structures can show the parent of a compound that is named as a salt. Where two headings read alike, the source gives them in different places.

Key:
[1] = biological target: T1, wild type human RORγt ligand binding domain (RORyt LBD) (Homo sapiens, UniProt P51449); test: RORγt ThermoFluor assay (thermal shift, binding affinity KD)
T1 construct: His-tag (N); TurboTEV protease cleavage site (ENLYFQG) (N); made in house; host or cells: E. coli (pHIS1, modified pET vector)
T1 sequence (P51449 258-518): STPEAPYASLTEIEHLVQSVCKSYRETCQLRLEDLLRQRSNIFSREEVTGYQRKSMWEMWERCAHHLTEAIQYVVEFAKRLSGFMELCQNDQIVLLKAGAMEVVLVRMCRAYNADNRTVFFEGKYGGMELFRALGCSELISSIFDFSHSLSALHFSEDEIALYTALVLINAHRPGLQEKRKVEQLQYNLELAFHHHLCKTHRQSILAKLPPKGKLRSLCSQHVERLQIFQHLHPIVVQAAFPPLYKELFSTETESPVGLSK

[2] = biological target: T2, wild type human RORγt LBD (Homo sapiens, UniProt P51449); test: RORγt (LBD) Reporter Assay (GAL4-luciferase, HEK293T cells); assay type: cell-based; details: for inhibition at 6 µM: HEK-293T, read-out: RORγt (LBD) Reporter Assay, % inhibition @ 6 µM, 6 µM compound concentration; for RORγt (LBD) Reporter Assay, % inhibition @ 6 µM: 6 µM compound concentration
T2 construct: expressed in transfected cells; host or cells: HEK293T
T2 sequence (P51449 258-518): T1 sequence (P51449 258-518)

[3] = HEK293T cells, value after the comma with ∼, > or < could not be included in the average

| Compound | pKd [1] | pIC50 [2, 3] | inhibition at 6 µM [2] [%] | RORγt (LBD) Reporter Assay, % inhibition @ 6 µM ([2]; HEK293T cells) [%] | pIC50 ([2]; HEK293T cells) | inhibition at 6 µM ([2]; HEK293T cells) [%] | RORγt (LBD) Reporter Assay, % inhibition @ 6 µM [2] [%] |
| --- | --- | --- | --- | --- | --- | --- | --- |
| COc1nc2ccc(C(O)(c3cnnn3C)c3cnc(C)n3C)cc2c(C#N)c1Cc1ccc(F)cc1 (single isomer, unassigned) [Example 66b, 6-((1,2-Dimethyl-1H-imidazol-5-yl)(hydroxy)(1-methyl-1H-1,2,3-triazol-5-yl)methyl)-3-(4-fluorobenzyl)-2-methoxyquinoline4-carbonitrile] | 8.96 | 8.51 | 82 |  |  |  |  |
| Cc1cc(C(O)(c2ccc(Cl)cc2)c2cncn2C)cc2c(Cl)c(Cc3ccc(-n4cccn4)cc3)c(N3CCC3)nc12 (single isomer, unassigned) [Example 136c, {2-Azetidin-1-yl-4-chloro-8-methyl-3-[4-(1H-pyrazol-1-yl)benzyl]quinolin-6-yl}(4-chlorophenyl)(1-methyl-1H-imidazol-5-yl)methanol] | 7.72 |  |  | 97 | 6.85 |  |  |
| COc1nc2ccc(C(O)(c3ccc(C#N)cc3)c3cncn3C)cc2c(Cl)c1Cc1ccc(-n2cncn2)cc1 (single isomer, unassigned) [Example 14b, 4-((3-(4-(1H-1,2,4-Triazol-1-yl)benzyl)-4-chloro-2-methoxyquinolin-6-yl)(hydroxy)(1-methyl-1H-imidazol-5-yl)methyl)benzonitrile] | 6.85 | 6.92 | 105 |  |  |  |  |
| Cc1ccc(C(O)(c2ccc3nc(N4CCC4)c(Cc4ccc(C(F)(F)F)cc4)c(Cl)c3c2)c2cnnn2C)c(C)n1 (single isomer, unassigned) [Example 140b, {2-Azetidin-1-yl-4-chloro-3-[4-(trifluoromethyl)benzyl]quinolin-6-yl}(2,6-dimethylpyridin-3-yl)(1-methyl-1H-1,2,3-triazol-5-yl)methanol] | 6.89 |  |  |  | ~7.00 | 101 |  |
| COc1nc2ccc(C(O)(c3ccc(C)nc3C)c3cnnn3C)cc2c(Cl)c1Cc1ccc(N(C)C)cc1 (single isomer, unassigned) [Example 24c, (4-Chloro-3-(4-(dimethylamino)benzyl)-2-methoxyquinolin-6-yl)(2,6-dimethylpyridin-3-yl)(1-methyl-1H-1,2,3-triazol-5-yl)methanol] | 9.49 | 7.60 |  |  |  |  | 97 |
| COc1nc2ccc(C(O)(c3sc(C)nc3C)c3cnnn3C)cc2cc1Cc1ccc(C(F)(F)F)cc1 (single isomer, unassigned) [Example 92b, (2,4-Dimethylthiazol-5-yl)(2-methoxy-3-(4-(trifluoromethyl)benzyl)quinolin-6-yl)(1-methyl-1H-1,2,3-triazol-5-yl)methanol] | 5.70 | 5.55 | 79 |  |  |  |  |
| COc1nc2ccc(C(O)(c3cnnn3C)C3CCOCC3)cc2c(Cl)c1Cc1ccc(C(F)(F)F)cc1 (single isomer, unassigned) [Example 85c, (4-Chloro-2-methoxy-3-(4-(trifluoromethyl)benzyl)quinolin-6-yl)(1-methyl-1H-1,2,3-triazol-5-yl)(tetrahydro-2H-pyran-4-yl)methanol] | 8.55 | 7.77 |  |  |  |  | 100 |
| Cc1cc(C(O)(c2ccnc(C(F)(F)F)c2)c2cncn2C)cc2c(C#N)c(Cc3ccc(-n4cccn4)cc3)c(C#N)nc12 (single isomer, unassigned) [Example 83b, 3-(4-(1H-Pyrazol-1-yl)benzyl)-6-(hydroxy(1-methyl-1H-imidazol-5-yl)(2-(trifluoromethyl)pyridin-4-yl)methyl)-8-methylquinoline-2,4-dicarbonitrile] | 9.17 | 7.89 | 104 |  |  |  |  |
| COc1ccc(C(O)(c2cccnc2)c2ccc3nc(OC)c(Cc4ccc(-n5cccn5)cc4)c(Cl)c3c2)cc1OC (single isomer, unassigned) [Example 159b, (3-(4-(1H-Pyrazol-1-yl)benzyl)-4-chloro-2-methoxyquinolin-6-yl)(3,4-dimethoxyphenyl)(pyridin-3-yl)methanol] | 6.29 |  |  |  | 6.43 | 107 |  |
| COc1nc2ccc(C(O)(c3ccccc3)C3CCN(C(C)=O)CC3)cc2c(Cl)c1Cc1ccc(-n2ccnc2)cc1 (stereo not drawn) [Example 16c] | 8.34 | 7.70 |  |  |  |  | 100 |
| Cn1cncc1C(O)(c1ccc2nc(C(F)(F)F)c(Cc3ccccc3)c(O)c2c1)c1ccccn1 (stereo not drawn) [Example 152, 3-Benzyl-6-(hydroxy(1-methyl-1H-imidazol-5-yl)(pyridin-2-yl)methyl)-2-(trifluoromethyl)quinolin-4-ol^.TFA] | 4.42 |  |  |  | 5.32 | 70 |  |
| Cn1cncc1C(O)(c1ccc2nc(C(F)(F)F)c(Cc3ccccc3)c(C#N)c2c1)c1ccccn1 (single isomer, unassigned) [Example 99b, 3-Benzyl-6-(hydroxy(1-methyl-1H-imidazol-5-yl)(pyridin-2-yl)methyl)-2-(trifluoromethyl)quinoline-4-carbonitrile] | 6.09 | ~5.70 | 86 |  |  |  |  |
| COc1nc2ccc(C(O)(c3ccc(F)cc3)c3cccnc3)cc2c(Cl)c1Cc1ccc(-n2cccn2)cc1 (single isomer, unassigned) [Example 158c, (3-(4-(1H-Pyrazol-1-yl)benzyl)-4-chloro-2-methoxyquinolin-6-yl)(4-fluorophenyl)(pyridin-3-yl)methanol] | 8.11 |  |  | 100 | 6.89 |  |  |
| COc1nc2ccc(C(O)(c3cncn3C)C3CCOCC3)cc2c(Cl)c1Cc1ccc(-n2cccn2)cc1 (single isomer, unassigned) [Example 1b, (3-(4-(1H-Pyrazol-1-yl)benzyl)-4-chloro-2-methoxyquinolin-6-yl)(1-methyl-1H-imidazol-5-yl)(tetrahydro-2H-pyran-4-yl)methanol] | 7.37 | 7.00 | 99 |  |  |  |  |
| Cc1cc(C(O)(c2ccnc(C(F)(F)F)c2)c2cncn2C)cc2c(C#N)c(Cc3ccc(-n4cccn4)cc3)c(C#N)nc12 (single isomer, unassigned) [Example 83c, 3-(4-(1H-Pyrazol-1-yl)benzyl)-6-(hydroxy(1-methyl-1H-imidazol-5-yl)(2-(trifluoromethyl)pyridin-4-yl)methyl)-8-methylquinoline-2,4-dicarbonitrile] | 6.35 | 5.82 |  |  |  |  | 100 |
| COc1c(Cc2ccccc2)c(C(F)(F)F)nc2ccc(C(O)(c3ccccn3)c3cncn3C)cc12 (single isomer, unassigned) [Example 98c, (3-Benzyl-4-methoxy-2-(trifluoromethyl)quinolin-6-yl)(1-methyl-1H-imidazol-5-yl)(pyridin-2-yl)methanol] | 6.42 | 6.38 |  |  |  |  | 96 |
| Cn1cncc1C(O)(c1ccc(Cl)cc1)c1ccc2nc(C(F)(F)F)c(Cc3ccccc3)c(C#N)c2c1 (stereo not drawn) [Example 103, 3-Benzyl-6-((4-chlorophenyl)(hydroxy)(1-methyl-1H-imidazol-5-yl)methyl)-2-(trifluoromethyl)quinoline-4-carbonitrile•TFA] | 8.03 | 7.48 | 81 |  |  |  |  |
| COc1nc2ccc(C(O)(c3ccccc3)C3CCN(C(C)=O)CC3)cc2c(Cl)c1Cc1ccc(C(F)(F)F)cc1 (single isomer, unassigned) [Example 69c, 1-(4-((4-Chloro-2-methoxy-3-(4-(trifluoromethyl)benzyl)quinolin-6-yl)(hydroxy)(phenyl)methyl)piperidin-1-yl)ethanone] | 7.46 | 7.16 |  |  |  |  | 99 |
| COc1nc2ccc(C(O)(c3ccccc3)C3CCN(C(C)=O)CC3)cc2c(Cl)c1Cc1ccc(-n2cncn2)cc1 (stereo not drawn) [Example 18a, 1-(4-((3-(4-(1H-1,2,4-Triazol-1-yl)benzyl)4-chloro-2-methoxyquinolin-6-yl)(hydroxy)(phenyl)methyl)piperidin-1-yl)ethanone] | 7.85 | 7.34 | 99 |  |  |  |  |
| COc1nc2ccc(C(O)(c3cnnn3C)C3CCN(C(C)=O)CC3)cc2c(Cl)c1Cc1ccc(C(F)(F)F)cc1 (single isomer, unassigned) [Example 74c, 1-(4-((4-Chloro-2-methoxy-3-(4-(trifluoromethyl)benzyl)quinolin-6-yl)(hydroxy)(1-methyl-1H-1,2,3-triazol-5-yl)methyl)piperidin-1-yl)ethanone] | 8.11 | 7.70 |  |  |  |  | 101 |
| CCc1nc2ccc(C(O)(c3ccc(C)nc3C)c3cnnn3C)cc2c(Cl)c1Cc1ccc(C(F)(F)F)cc1 (single isomer, unassigned) [Example 23b, (4-Chloro-2-ethyl-3-(4-(trifluoromethyl)benzyl)quinolin-6-yl)(2,6-dimethylpyridin-3-yl)(1-methyl-1H-1,2,3-triazol-5-yl)methanol] | 7.09 | 6.70 | 94 |  |  |  |  |
